Measured values: patent US20120122727A1, “IN VITRO METHOD FOR PREDICTING WHETHER A COMPOUND IS GENOTOXIC IN VIVO” (priority 2009, published 2012)

Assays:
[1] = known class of the validation compound (GTX = true GTX, FP-GTX = false GTX); cited from earlier work
[2] = test system: primary mouse hepatocytes; assay: Class prediction true GTX vs false GTX by PAM from hepatocyte gene expression; conditions: for class prediction (true GTX / false GTX): independent triplicate treatments; for Prediction 24 h Exp 1 / Prediction 24 h Exp 2 / Prediction 24 h Exp 3 / Prediction 48 h Exp 1 / Prediction 48 h Exp 2 / Prediction 48 h Exp 3: PAM class prediction
Protocol: PAM uses gene expression data to calculate the shrunken centroid for each class and identifies the specific genes that determine the centroid most. Based on the nearest shrunken centroid, PAM is also capable of predicting to which class an unknown sample belongs (27). Class prediction was performed after 24 h and 48 h of exposure.
For this analysis, the gene list with differentially expressed probe sets was used. For each exposure period, 3 sets of genes (classifiers) were generated by PAM, using all ten treatments, based on the smallest estimated misclassification error rate (generated by 10-fold cross-validation) and a >80% predicted test probability. This was done by using 2 experiments as training set and the third experiment for validation. This was done for all 3 possible combinations, each time leaving out another experiment. For each time point, the classifiers that were in common between the three training sets, were set as the final classifier set for that time point
For the purpose of validating the class discrimination models with the final classifier sets, gene expression data were generated for two additional true GTX compounds, phenacetin and DMBA, and for three False GTX compounds, cur, ethylacrylate and resorcinol and the vehicle control for exposure periods of 24 and 48 h.

| Compound | Genotoxic class [1] | class prediction (true GTX / false GTX) ([2]; 24 h exposure) | class prediction (true GTX / false GTX) ([2]; 48 h exposure) | Prediction 24 h Exp 1 [2] | Prediction 24 h Exp 2 [2] | Prediction 24 h Exp 3 [2] | Prediction 48 h Exp 1 [2] | Prediction 48 h Exp 2 [2] | Prediction 48 h Exp 3 [2] | predicted test probability ([2]; both time points (24 and 48 h)) [%] |
| --- | --- | --- | --- | --- | --- | --- | --- | --- | --- | --- |
| Cc1c2ccccc2c(C)c2c1ccc1ccccc12 [DMBA] | GTX | classified correctly | classified correctly | GTX | GTX | GTX | GTX | GTX | GTX | 100 |
| CCOc1ccc(NC(C)=O)cc1 [Phen] | GTX | – | – | GTX | GTX | GTX | FP-GTX | FP-GTX | FP-GTX | – |
